Measurements published in article PMC8246065 (The EMBO Journal, 2021).
Like-named read-outs stand apart in the source and are kept apart here.

How the values were obtained:
BMDMs = assay: Il6 expression and multiplex cytokine production in WT, Nod1/2 KO and Rip2 KO BMDMs; assay type: cell-based, mice; conditions: S1P 10 µM with digitonin (2.5 µg/ml); WT vs Nod1/2 KO and Rip2 KO
Method: The human monocytic cell line THP‐1 was obtained from the American Type Culture Collection (ATCC, TIB‐202) and maintained in RPMI 1640 (Gibco, 31870) with 10% (v:v) heat‐inactivated fetal bovine serum (FBS, Sigma‐Aldrich, F0804), 1 mM sodium pyruvate (Gibco, 11360070), 2 mM L‐glutamine (Gibco, 25030081), 10 mM HEPES buffer (Gibco, 15630080), pH 7.2‐7.5, and 50 µM 2‐mercaptoethanol (Gibco, 31350010). To differentiate THP‐1 into macrophage‐like cells, THP‐1 cells were stimulated with 50 ng/ml phorbol 12‐myristate 13‐acetate (Sigma‐Aldrich, P8139) for 24 h and then incubated with fresh medium for another 48 h. HEK293T WT and HEK293T NOD1/2 dKO cells were generated as described (Dagil et al, 2016). […]
Total RNA was isolated with TRIzol reagent, as described by the manufacturer (Invitrogen). […] Gene expression was normalized to glyceraldehyde‐3‐phosphate dehydrogenase (GAPDH), and fold changes were calculated against corresponding controls. qRT–PCR data were representative of at least three independent experiments, with at least 2 technical replicates per experiment. […]

NOD1 = target: T1, NOD1 (Homo sapiens, UniProt Q9Y239); assay: Microscale thermophoresis (MST) binding to purified NOD1-GFP
T1 sequence (Q9Y239 1-953): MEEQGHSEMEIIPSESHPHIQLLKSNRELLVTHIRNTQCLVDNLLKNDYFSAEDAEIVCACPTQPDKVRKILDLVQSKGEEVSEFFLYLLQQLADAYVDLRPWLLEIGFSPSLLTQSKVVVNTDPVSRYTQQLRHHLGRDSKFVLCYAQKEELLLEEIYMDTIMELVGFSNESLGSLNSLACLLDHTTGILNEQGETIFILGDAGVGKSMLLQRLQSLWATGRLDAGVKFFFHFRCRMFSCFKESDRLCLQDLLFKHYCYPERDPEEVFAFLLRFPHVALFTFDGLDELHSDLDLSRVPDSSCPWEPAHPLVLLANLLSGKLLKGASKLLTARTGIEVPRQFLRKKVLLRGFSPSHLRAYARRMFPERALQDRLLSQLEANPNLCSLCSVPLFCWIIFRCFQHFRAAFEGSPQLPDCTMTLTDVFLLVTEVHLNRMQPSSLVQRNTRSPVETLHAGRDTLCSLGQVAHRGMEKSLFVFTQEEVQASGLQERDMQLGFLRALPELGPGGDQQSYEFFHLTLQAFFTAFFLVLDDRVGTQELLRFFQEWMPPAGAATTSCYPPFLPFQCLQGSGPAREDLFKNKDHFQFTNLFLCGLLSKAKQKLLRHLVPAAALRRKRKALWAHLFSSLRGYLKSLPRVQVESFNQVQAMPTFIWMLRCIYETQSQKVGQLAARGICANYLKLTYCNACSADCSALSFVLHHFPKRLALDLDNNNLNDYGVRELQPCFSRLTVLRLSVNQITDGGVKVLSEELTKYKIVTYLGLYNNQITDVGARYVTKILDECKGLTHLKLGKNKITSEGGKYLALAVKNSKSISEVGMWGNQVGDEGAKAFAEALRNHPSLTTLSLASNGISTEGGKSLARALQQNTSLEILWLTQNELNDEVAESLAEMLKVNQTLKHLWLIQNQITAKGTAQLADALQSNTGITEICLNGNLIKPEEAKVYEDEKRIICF
Method: The lysates were incubated with 2 ml GFP‐Trap agarose at 4°C for 4 h. The agarose was collected with Poly‐Prep columns by gravity flow. […] To remove heat shock proteins, columns were further washed with 50 ml wash buffer III (50 mM Tris–HCl, pH 7.5, 150 mM NaCl, 5 mM MgCl2+, 1 mM ATP). To elute the proteins, the agarose was mixed with 2 ml elution buffer (100 mM Glycine, pH 2.5) for 1 min and the eluted proteins were immediately neutralized with 0.2 ml of 1 M Tris, pH 10.5.

CCCCCCCCCCCCC/C=C/[C@@H](O)[C@@H](N)COP(=O)(O)O [S1P, sphingosine‐1‐phosphate]
Il6 expression and production of IL6, CXCL2, CCL5 and IL16 (BMDMs): markedly impaired in Nod1/2 KO and Rip2 KO BMDMs
Kd (NOD1; Fig 6D, one representative experiment, read-out: Kd (NOD1/ligand)): 2090 ± 770 nM
Kd (NOD1; Fig EV5B, purified NOD1, read-out: Kd (NOD1/ligand)): 2290 ± 1970 nM
Kd (NOD1; Kd value of S1P interacting with NOD1, as stated in text): ~2000 nM
Kd (NOD1; Kd(NOD1: S1P), Fig 7C, S1P alone): 1740 ± 430 nM
Kd (NOD1; Kd(NOD1 WT: S1P), Fig 7E): 2200 ± 510 nM
